Reference: patent publication US7901893B2, “NPC1L1 (NPC3) and methods of identifying ligands thereof” (Merck Sharp & Dohme Corp., priority 2004, dated 2011)

Columns and labels:
[1] = molecular target: T1, rat brush border membrane vesicles (Rattus norvegicus, UniProt Q6T3U3); assay: Binding assay with rat brush border membrane vesicles
T1 construct: from tissue; host or cells: rat (male Sprague-Dawley) small-intestinal mucosa, brush border membrane vesicles
Source text: Glass fiber filters (GF/C) were obtained from Whatman.
Rate constants for binding and dissociation.
(§1) Analog structures are defined in Table 12.

[2] = molecular target: T2, rhesus brush border membrane vesicles (Macaca mulatta, UniProt A0MJA5); assay: Binding assay with rhesus brush border membrane vesicles
T2 sequence (A0MJA5 1-1332): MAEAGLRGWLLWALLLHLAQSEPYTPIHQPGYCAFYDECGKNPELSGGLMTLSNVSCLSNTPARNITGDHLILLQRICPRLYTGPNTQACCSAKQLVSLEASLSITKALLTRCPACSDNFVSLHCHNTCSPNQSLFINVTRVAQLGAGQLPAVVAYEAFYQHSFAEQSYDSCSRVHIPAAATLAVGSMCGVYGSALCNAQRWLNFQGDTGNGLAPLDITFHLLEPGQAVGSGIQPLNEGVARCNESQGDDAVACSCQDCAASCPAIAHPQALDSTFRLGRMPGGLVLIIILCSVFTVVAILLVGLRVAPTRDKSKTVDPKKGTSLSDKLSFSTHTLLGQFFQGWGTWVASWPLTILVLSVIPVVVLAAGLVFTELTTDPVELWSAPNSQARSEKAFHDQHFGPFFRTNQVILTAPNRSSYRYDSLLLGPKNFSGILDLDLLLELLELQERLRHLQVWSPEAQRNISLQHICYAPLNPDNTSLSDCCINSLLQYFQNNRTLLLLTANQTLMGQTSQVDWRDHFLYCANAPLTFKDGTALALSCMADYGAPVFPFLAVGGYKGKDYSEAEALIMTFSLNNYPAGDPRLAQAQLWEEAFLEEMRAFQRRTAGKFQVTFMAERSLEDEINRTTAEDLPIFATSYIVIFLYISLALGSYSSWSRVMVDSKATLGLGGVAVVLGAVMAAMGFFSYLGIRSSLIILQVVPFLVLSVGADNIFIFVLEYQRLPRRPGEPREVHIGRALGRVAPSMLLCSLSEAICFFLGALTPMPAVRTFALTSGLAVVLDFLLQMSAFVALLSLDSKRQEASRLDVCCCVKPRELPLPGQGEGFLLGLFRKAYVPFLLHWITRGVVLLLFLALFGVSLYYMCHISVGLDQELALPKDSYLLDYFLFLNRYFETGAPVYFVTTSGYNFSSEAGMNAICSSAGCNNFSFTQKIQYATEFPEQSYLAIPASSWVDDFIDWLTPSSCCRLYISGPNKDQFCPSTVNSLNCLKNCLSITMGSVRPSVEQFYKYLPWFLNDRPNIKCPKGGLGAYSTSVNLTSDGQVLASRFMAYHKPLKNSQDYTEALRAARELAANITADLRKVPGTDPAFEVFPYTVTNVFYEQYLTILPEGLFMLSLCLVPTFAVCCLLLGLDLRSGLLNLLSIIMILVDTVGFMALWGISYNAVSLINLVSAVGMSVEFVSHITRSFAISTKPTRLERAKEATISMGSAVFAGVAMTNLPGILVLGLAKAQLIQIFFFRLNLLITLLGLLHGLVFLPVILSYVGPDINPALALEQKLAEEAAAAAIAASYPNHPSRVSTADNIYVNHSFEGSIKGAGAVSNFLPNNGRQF
Experimental: The intestines from freshly sacrificed animals were cut into segments, perfused with ice-cold saline buffer (Buffer A: 26 mM NaHCO3, 0.96 mM NaH2PO4, 5 mM HEPES, 5.5 mM glucose, 117 mM NaCl, 5.4 mM KCl, pH=7.4), placed on cold glass plates, opened longitudinally, and the mucosa scraped with glass microscope slips. This mucosa could be used fresh or frozen with identical results. To prepare the membranes, the mucosal scrapings were resuspended in 20 volumes of cold buffer consisting of 300 mM D-mannitol, 5 mM EGTA, 12 mM Tris, pH 7.4 with HCl, and containing 0.1 mM PMSF and a 1% dilution of a protease inhibitor cocktail (set 1, Calbiochem). They were homogenized using a Polytron at medium speed on ice until inspection with a microscope indicated complete cell lysis. Then, solid MgCl2 was added slowly with stirring to a final concentration of 10 mM, and the solution was kept stirring on ice for 15 min. Cellular debris was removed by centrifugation for 15 min at 3,000 g, and the membranes were recovered by centrifugation for 60 min at 48,000 g. The membranes were further rinsed by re-suspension in a buffer containing 50 mM D-mannitol, 5 mM EGTA, and 2 mM Tris at pH 7.40, and centrifugation for 60 min at 48,000 g. The final pellet was resuspended in 120 mM NaCl and 20 mM Tris at pH 7.40 to a concentration of ˜10-20 mg protein/ml, aliquoted, frozen in liquid nitrogen, and stored at −80 C. The activity was stable indefinitely and could be freeze-thawed with minimal loss of activity.
Binding assay. Assays were conducted in 12×75 mm glass test tubes and total volume 20-100 ul. In general, frozen membranes were diluted in buffer A or buffer A containing 0.03% taurocholate and 0.05% digitonin to a final concentration of 0.02 to 5 mg/ml. […] Competing ligands were likewise added as DMSO solutions to give a total 2-10% organic solvent content. […] At least 2 components of buffer A, the bicarbonate and phosphate salts, were later found to be inconsequential and were routinely omitted.
Bound ligand was quantified by single-tube vacuum filtration using GF/C glass fiber filters. […] Filtration was accomplished by adding 2.5 ml of ice cold buffer (120 mM NaCl, 0.1% sodium cholate, and 20 mM MES at pH 6.70) to the assay tube, pouring the mixture through the filter, and then rinsing the tube and filter twice more with another 2×2.5 ml buffer. The filters were counted in 7 ml vials using Packard DM liquid scintillation fluid.
Data analysis. Data from saturation experiments were subjected to a Scatchard analysis, and linear regression was performed to yield the equilibrium dissociation constant (Kd) and maximum receptor concentration (Bmax). […] Data from competition experiments were analyzed and IC50 values determined from Hill plots of the binding data.

rat NPC1L1 = rat NPC1L1 (Rattus norvegicus, UniProt Q6T3U3); assay: Binding to membranes of HEK-293 cells expressing recombinant rat NPC1L1; parameters: expressed in transfected cells; host or cells: HEK-293 cells (ATCC), transient, pCR3.1; membranes; conditions: 0.03% sodium taurocholate and 0.05% digitonin; 1.25 mg protein/ml, 100 nM 1
Experimental: (§2) Transient expression of NPC1L1. Plasmid pCR3.1 expressing rat NPC1L1 (Genbank AY437867) or human NPC1L1 (Genbank AY437865) were prepared using standard molecular biology protocols. HEK-293 cells (ATCC) were seeded at 10×10^6 cells per T-225 flask (Corning) in DMEM containing 10% fetal calf serum, 4.5 g/L D-glucose and L-glutamine, 18 hours prior to transfection. They were transiently transfected with 25 μg of DNA using Fugene transfection reagent (Roche Biochemical) at a ratio of 6:1 Fugene:DNA. Following transfection, the cells were incubated at 37° C. and 5% CO2 for 48 hours, and then harvested using PBS based cell dissociation buffer (Gibco), pelleted at 500×g, snap frozen on dry ice, and stored at −80° C.
(§3) Membrane preparation from HEK-293 cells. Membranes were prepared by resuspending the frozen cell pellets in ten volumes of 20 mM HEPES/Tris buffer at pH 7.40 containing 8% sucrose, and sonicating the suspensions with a probe sonicator on ice until most of the cells were lysed. To isolate the membranes, the sonicates were centrifuged at 1600×g for 10 min to remove cell debris, and then the supernatants were centrifuged at 125,000×g for 1 hour to recover the membranes. These membranes were resuspended in 20 mM HEPES/Tris buffer at pH 7.40 containing 160 mM NaCl and 5% glycerol, and stored at 10-20 mg/ml protein at −80° C.
as §1

human NPC1L1 = molecular target: T3, human NPC1L1 (Homo sapiens, UniProt Q9UHC9, G1187D/M616T/T1073A); assay: Binding to membranes of HEK-293 cells expressing recombinant human NPC1L1; parameters: expressed in transfected cells; host or cells: HEK-293 cells (ATCC), transient, pCR3.1; membranes; conditions: 0.03% sodium taurocholate and 0.05% digitonin; 1.25 mg protein/ml, 100 nM 1
T3 sequence (Q9UHC9 22-1332 isoform Q9UHC9-2 M616T/T1046A/G1160D limits assumed): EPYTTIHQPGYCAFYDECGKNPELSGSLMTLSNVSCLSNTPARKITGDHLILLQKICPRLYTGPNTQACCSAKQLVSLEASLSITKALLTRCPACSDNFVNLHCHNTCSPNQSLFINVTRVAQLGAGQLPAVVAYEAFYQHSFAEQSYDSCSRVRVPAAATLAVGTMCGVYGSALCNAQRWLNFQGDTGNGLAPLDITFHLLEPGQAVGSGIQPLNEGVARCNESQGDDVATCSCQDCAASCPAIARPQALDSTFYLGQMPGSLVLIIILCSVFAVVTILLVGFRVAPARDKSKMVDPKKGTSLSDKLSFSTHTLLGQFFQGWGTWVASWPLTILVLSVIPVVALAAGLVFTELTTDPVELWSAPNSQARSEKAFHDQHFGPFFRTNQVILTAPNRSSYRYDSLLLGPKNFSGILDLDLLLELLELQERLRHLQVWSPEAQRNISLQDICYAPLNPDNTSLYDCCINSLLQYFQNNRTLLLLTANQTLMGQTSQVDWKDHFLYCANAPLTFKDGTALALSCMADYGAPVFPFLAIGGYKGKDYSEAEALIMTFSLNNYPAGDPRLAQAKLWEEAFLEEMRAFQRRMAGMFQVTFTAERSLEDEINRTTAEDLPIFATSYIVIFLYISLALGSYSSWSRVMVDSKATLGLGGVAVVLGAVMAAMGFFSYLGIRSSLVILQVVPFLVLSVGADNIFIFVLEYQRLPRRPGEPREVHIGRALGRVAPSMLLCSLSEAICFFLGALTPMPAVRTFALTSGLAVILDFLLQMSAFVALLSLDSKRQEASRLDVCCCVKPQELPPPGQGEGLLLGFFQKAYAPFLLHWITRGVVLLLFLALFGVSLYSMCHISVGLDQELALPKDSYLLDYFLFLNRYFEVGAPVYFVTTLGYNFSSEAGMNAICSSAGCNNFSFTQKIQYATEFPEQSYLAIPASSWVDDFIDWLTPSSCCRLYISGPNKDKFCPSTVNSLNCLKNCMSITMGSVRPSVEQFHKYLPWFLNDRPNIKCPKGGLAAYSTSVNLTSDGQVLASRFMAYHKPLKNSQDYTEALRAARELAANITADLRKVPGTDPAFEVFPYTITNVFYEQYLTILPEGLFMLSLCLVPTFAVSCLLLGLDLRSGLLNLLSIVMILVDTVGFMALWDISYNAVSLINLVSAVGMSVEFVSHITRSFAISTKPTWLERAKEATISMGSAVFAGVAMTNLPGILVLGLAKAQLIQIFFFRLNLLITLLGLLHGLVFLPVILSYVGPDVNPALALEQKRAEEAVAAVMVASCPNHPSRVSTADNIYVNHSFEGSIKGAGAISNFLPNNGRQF
Experimental: as §2, §3, §1

Ki ([1]; 0.03% sodium taurocholate and 0.05% digitonin, 1.25 mg protein/ml, 100 nM 1, read-out: Rat BBM Ki): 280 nM
IC50 ([1]; rat brush border membrane vesicles, read-out: RAT IC50 (nM), inhibition of ^3H-EZE-gluc binding): 252 nM
Ki [2]: 60 nM
Ki (rat NPC1L1): 360 nM
Ki (human NPC1L1): 210 nM
Structure (SMILES): O=C(O)[C@H]1O[C@@H](Oc2ccc([C@@H]3[C@@H](CC[C@H](O)c4ccc(F)cc4)C(=O)N3c3ccc(F)cc3)c(O)c2)[C@H](O)[C@@H](O)[C@@H]1O [Compound 7]
